Data set [1] can be described thus: Compound cytotoxicity in absence of virus (CellTiter-Glo). Type of data set: cell-based. As to conditions: human. The method, then: Compounds were profiled against two HIV-1 viruses, the M-tropic (CCR5 utilizing) Ba-L strain and the T-tropic (CXCR4 utilizing) IIIB strain. Both viruses were propagated in human peripheral blood lymphocytes. Compounds were tested for there ability to block infection of the HOS cell line (expressing hCXCR4/hCCR5/hCD4/pHIV-LTR-luciferase) by either HIV-1 Ba-L or HIV-1, IIIB. Compound cytotoxicity was also examined in the absence of virus addition.
HOS cells (expressing hCXCR4/hCCR5/hCD4/pHIV-LTR-luciferase) were harvested and diluted in Dulbeccos modified Eagles media supplemented with 2% FCS and non-essential amino acid to a concentration of 60,000 cells/ml. The cells were plated into 96-well plates (100 ul per well) and the plates were placed in a tissue culture incubator (37° C.; 5% CO2/95% air) for a period of 24 h.
Subsequently, 50 ul of the desired drug solution (4 times the final concentration) was added to each well and the plates were returned to the tissue culture incubator (37° C.; 5% CO2/95% air) for 1 h. Following this incubation 50 ul of diluted virus was added to each well (approximately 2 million RLU per well of virus). The plates were returned to the tissue culture incubator (37° C.; 5% CO2/95% air) and were incubated for a further 96 h.
Following this incubation the endpoint for the virally infected cultures was quantified following addition of Steady-Glo Luciferase assay system reagent (Promega, Madison, Wis.). Cell viability or non-infected cultures was measured using a CellTiter-Glo luminescent cell viability assay system (Promega, Madison, Wis.). All luminescent readouts are performed on a Topcount luminescence detector (Packard, Meridien, Conn.).
Compounds were profiled against two HIV-1 viruses, the M-tropic (CCR5 utilizing) Ba-L strain and the T-tropic (CXCR4 utilizing) IIIB strain. Ba-L was propagated in either peripheral blood lymphocytes or SupT1/CCR5+/CXCR4+ cells. IIIB was propagated in peripheral blood lymphocytes. Compounds were tested for their ability to block infection of the HOS cell line (expressing hCXCR4/hCCR5/hCD4/pHIV-LTR-luciferase) by either HIV-1 Ba-L or HIV-1, IIIB. Compound cytotoxicity was also examined in the absence of virus addition.
HOS cells (expressing hCXCR4/hCCR5/hCD4/pHIV-LTR-luciferase) were harvested and diluted in Dulbeccos modified Eagles media supplemented with 2% FCS to a concentration of 120,000 cells/ml. The cells were plated into 96-well plates (50 μl per well) and the plates were placed in a tissue culture incubator (370° C.; 5% CO2/95% air) for a period of 24 h.
Subsequently, 50 μl of the desired drug solution (2 times the final concentration) was added to each well and the plates were returned to the tissue culture incubator (370° C.; 5% CO2/95% air) for 1 h. Following this incubation, 60 μl of diluted virus (4 times the final concentration) was added to 60 μl of 2× the final desired concentration of the compound and 100 μl of this compound/virus mix was added to each well (approximately 2 million RLU per well of virus). The plates were returned to the tissue culture incubator (370° C.; 5% CO2/95% air) and were incubated for a further 96 h.
Background: In ATP-based viability assays light output follows the ATP content of the culture.

Data set [2] concerns the target T1, human CXCR4 (Homo sapiens, UniProt P61073).
T1 construct: expressed in transfected cells; host or cells: HEK-293 cells (stably expressing human macrophage scavenging receptor) transduced with human CXCR4 BacMam and Gqi5 BacMam baculovirus
The experiment in a line: Functional FLIPR assay (block of SDF-1 alpha calcium response). Format: cell-based. As to conditions: HEK-293 cells with human CXCR4 and Gqi5 BacMam; antagonism of SDF-1 alpha [Ca2+]i change; read-out: Functional assay (pIC50) (converted). The method, then:
Human embryonic kidney (HEK-293) cells were maintained and harvested as described above. Cells were plated in 96-well, black clear bottom, poly-lysine coated plates at a concentration of 40,000 cells per well in a final volume of 100 ul containing human CXCR4BacMam (MOI=25) and Gqi5 BacMam (MOI=12.5). The cells were incubated at 37° C., 5% CO2, 95% humidity for 24 h to allow for protein expression.
After the required incubation time the cells were washed once with 50 ul of fresh serum-free DMEM/F12 media containing probenicid. 50 ul of dye solution was then added to the cells (Calcium Plus Assay Kit Dye; Molecular Devices) was dissolved in 200 ml of the above probenicid/BSA containing media and incubated for 1 h. Cell plates were transferred to a Fluorometric Imaging Plate Reader (FLIPR). Upon addition the effect of the compounds on the change in [Ca^2+]i was examined to determine if the compounds were agonists or antagonists (ability to block SDF-1 alpha activity) at the CXCR4 receptor. IC50 values are determined and pKb values are calculated using the Leff and Dougall equation: KB=IC50/((2+([agonist]/EC50̂b) ̂1/b−1) Where IC50 is that defined by the antagonist concentration-response curve [agonist] is the EC80 concentration of agonist used EC50 is that defined by the agonist concentration-response curve b is the slope of the agonist concentration-response curve.

[3] abbreviates: HOS cells, no virus added, cell viability, read-out: Cytotox (pIC50) (converted).

Each structure is given as a SMILES string. Where a name gives a salt, the structure may show the parent alone. Read-outs that look alike come from different tables or passages of the source.

T1 sequence (P61073 whole entry): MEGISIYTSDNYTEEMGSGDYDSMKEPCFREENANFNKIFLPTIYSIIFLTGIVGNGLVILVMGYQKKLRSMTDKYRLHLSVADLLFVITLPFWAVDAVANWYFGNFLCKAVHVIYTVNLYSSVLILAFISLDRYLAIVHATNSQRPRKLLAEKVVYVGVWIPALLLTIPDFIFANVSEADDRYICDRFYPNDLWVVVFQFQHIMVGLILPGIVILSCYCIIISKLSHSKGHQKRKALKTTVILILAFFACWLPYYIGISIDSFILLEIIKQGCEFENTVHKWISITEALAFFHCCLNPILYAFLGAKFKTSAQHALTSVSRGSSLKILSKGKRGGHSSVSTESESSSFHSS

Take `CN1CCN(c2cccc3nc(CN4CCC[C@@H]5CCc6cccnc6[C@@H]54)cn23)CC1` [Example 22, (4aS,10bR)-1-{[5-(4-Methyl-1-piperazinyl)imidazo[1,2-a]pyridin-2-yl]methyl}-1,2,3,4,4a,5,6,10b-octahydro-1,10-phenanthroline]: the IC50 at 96 h in data set [1] (setting [3]) was more than 100000 nM. Further, in data set [2], the IC50 was 31.6 nM.

For `CN(C)CCCn1c(CN2CCC[C@@H]3CCc4cccnc4[C@@H]32)nc2ccccc21` [Example 11A, (3-{2-[(4aS,10bR)-3,4,4a,5,6,10b-Hexahydro-1,10-phenanthrolin-1(2H)-ylmethyl]-1H-benzimidazol-1-yl}propyl)dimethylamine], the IC50 at 96 h in data set [1] (setting [3]) was more than 100000 nM. Besides, in data set [2], the IC50 is 851 nM.

`NCCCn1c(CN2CCC[C@@H]3CCc4cccnc4[C@H]32)nc2ccccc21` (racemic) [Example 8, (trans)-3-[2-(3,4,4a,5,6,10b-Hexahydro-1,10-phenanthrolin-1(2H)-ylmethyl)-1H-benzimidazol-1-yl]-1-propanamine]: the IC50 at 96 h in data set [1] (setting [3]) was more than 100000 nM. Also, in data set [2], the IC50 is 126 nM.

The compound `c1cnc2c(c1)CC[C@H]1CCCN(Cc3nc4ccccc4[nH]3)[C@H]21` (racemic) [Example 6, (trans)-1-(1H-Benzimidazol-2-ylmethyl)-1,2,3,4,4a,5,6,10b-octahydro-1,10-phenanthroline] had an IC50 at 96 h in data set [1] of 31600 nM. The IC50 in data set [2] was 126 nM.

With `CN(C)CCCn1c(CN2CCC[C@H]3CCc4cccnc4[C@H]32)nc2ccccc21` [Example 11B, (3-{2-[(4aR,10bS)-3,4,4a,5,6,10b-Hexahydro-1,10-phenanthrolin-1(2H)-ylmethyl]-1H-benzimidazol-1-yl}propyl)dimethylamine], the IC50 at 96 h in data set [1] (setting [3]) is more than 100000 nM. For the same compound, the IC50 in data set [2] is 10.5 nM.

As for `c1cnc2c(c1)CC[C@@H]1CCCN(Cc3nc4ccccc4n3Cc3ccncc3)[C@H]21` (racemic) [Example 12, (cis)-1-{[1-(4-Pyridinylmethyl)-1H-benzimidazol-2-yl]methyl}-1,2,3,4,4a,5,6,10b-octahydro-1,10-phenanthroline], the IC50 at 96 h in data set [1] (setting [3]) was more than 100000 nM. In addition, the IC50 in data set [2] was 1050 nM.

On to `CN1CCN(c2cccc3[nH]c(CN4CCC[C@@H]5CCc6cccnc6[C@H]54)nc23)CC1` (racemic) [Example 32, (trans)-1-{[4-(4-Methyl-1-piperazinyl)-1H-benzimidazol-2-yl]methyl}-1,2,3,4,4a,5,6,10b-octahydro-1,10-phenanthroline trifluoroacetate], for which the IC50 at 96 h in data set [1] (setting [3]) is more than 10000 nM. Besides, the IC50 in data set [2] was 479 nM.

In the case of `CN(C)CCCn1c(CN2CCC[C@@H]3CCc4cccnc4[C@H]32)nc2ccccc21` (stereo in doubt) [Example 10B, (3-{2-[(4aS,10bS)-3,4,4a,5,6,10b-Hexahydro-1,10-phenanthrolin-1(2H)-ylmethyl]-1H-benzimidazol-1-yl}propyl)dimethylamine], the IC50 at 96 h in data set [1] (setting [3]) was more than 100000 nM. Also, in data set [2], the IC50 was 93.3 nM.

`CN1CCN(c2cccc3nc(CN4CCC[C@H]5CCc6cccnc6[C@H]54)cn23)CC1` [Example 27, (4aR,10bS)-1-{[5-(4-Methyl-1-piperazinyl)imidazo[1,2-a]pyridin-2-yl]methyl}-1,2,3,4,4a,5,6,10b-octahydro-1,10-phenanthroline]: the IC50 at 96 h in data set [1] (setting [3]) is more than 10000 nM. Moreover, the IC50 in data set [2] was 1.26 nM.

For the compound `CN1CCN(c2cccc3nc(CN4CCC[C@@H]5CCc6cccnc6[C@H]54)cn23)CC1` (racemic) [Example 15A, (trans)-1-{[5-(4-Methyl-1-piperazinyl)imidazo[1,2-a]pyridin-2-yl]methyl}-1,2,3,4,4a,5,6,10b-octahydro-1,10-phenanthroline], in data set [1] (setting [3]), the IC50 at 96 h is more than 100000 nM. The IC50 in data set [2] is 40.7 nM.

`CN1CCN(c2cccc3nc(CN4CCC[C@H]5CCc6cccnc6[C@H]54)cn23)CC1` (racemic) [Example 15B, (cis)-1-{[5-(4-Methyl-1-piperazinyl)imidazo[1,2-a]pyridin-2-yl]methyl}-1,2,3,4,4a,5,6,10b-octahydro-1,10-phenanthroline]: in data set [1] (setting [3]), the IC50 at 96 h was more than 100000 nM. Besides, in data set [2], the IC50 was 3.39 nM.

Regarding `CN1CCCC(Cn2c(CN3CCC[C@H]4CCc5cccnc5[C@H]43)nc3ccccc32)C1` (mixture of isomers) [Example 13, (cis)-1-({1-[(1-Methyl-3-piperidinyl)methyl]-1H-benzimidazol-2-yl}methyl)-1,2,3,4,4a,5,6,10b-octahydro-1,10-phenanthroline], in data set [1] (setting [3]), the IC50 at 96 h was more than 100000 nM. Also, the IC50 in data set [2] is 7.59 nM.

Take `NCCCn1c(CN2CCC[C@H]3CCc4cccnc4[C@H]32)nc2ccccc21` (racemic) [Example 9, (cis)-3-[2-(3,4,4a,5,6,10b-Hexahydro-1,10-phenanthrolin-1(2H)-ylmethyl)-1H-benzimidazol-1-yl]-1-propanamine]: the IC50 at 96 h in data set [1] (setting [3]) is 28800 nM. Moreover, the IC50 in data set [2] was 19.5 nM.

`c1cnc2c(c1)CC[C@@H]1CCCN(Cc3nc4ccccc4[nH]3)[C@H]21` (racemic) [Example 7, (cis)-1-(1H-Benzimidazol-2-ylmethyl)-1,2,3,4,4a,5,6,10b-octahydro-1,10-phenanthroline]: in data set [1], the IC50 at 96 h was more than 100000 nM. Also, the IC50 in data set [2] was 437 nM.

Regarding `CN1CCN(c2cccc3nc(CN4CCC[C@H]5CCc6cccnc6[C@H]54)[nH]c23)CC1` (racemic) [Example 33, (cis)-1-{[4-(4-Methyl-1-piperazinyl)-1H-benzimidazol-2-yl]methyl}-1,2,3,4,4a,5,6,10b-octahydro-1,10-phenanthroline], in data set [1] (setting [3]), the IC50 at 96 h was 37200 nM. For the same compound, the IC50 in data set [2] is 2.4 nM.

Consider `CN(C)CCCn1c(CN2CCC[C@H]3CCc4cccnc4[C@@H]32)nc2ccccc21` (stereo in doubt) [Example 10A, (3-{2-[(4aR,10bR)-3,4,4a,5,6,10b-Hexahydro-1,10-phenanthrolin-1(2H)-ylmethyl]-1H-benzimidazol-1-yl}propyl)dimethylamine], for which the IC50 at 96 h in data set [1] (setting [3]) was more than 100000 nM. Also, the IC50 in data set [2] is 182 nM.

Values taken from patent US20090093454A1, “Chemical Compounds” (priority 2005, published 2009).
